Experimental data taken from the supplement of paper PMC13207355.

Tests used:
Details in all cases: exposure time: 72 h
[1] = tested on: E13 (patient-derived glioblastoma stem cells of classical subtype); assay: surviving fraction (nuclei count normalised to DMSO); higher = more cells surviving (less toxic)
[2] = tested on: E21 (patient-derived glioblastoma stem cells of mesenchymal subtype); assay: as above
[3] = tested on: E28 (patient-derived glioblastoma stem cells of classical subtype); assay: as above
[4] = tested on: E31 (patient-derived glioblastoma stem cells of proneural subtype); assay: as above
[5] = tested on: E34 (patient-derived glioblastoma stem cells of proneural subtype); assay: as above
[6] = tested on: E57 (patient-derived glioblastoma stem cells of mesenchymal subtype); assay: as above
[7] = tested on: FT3469 (normal neural stem cell line); assay: as above
[8] = tested on: E13; assay: phenotypic distance (Euclidean, principal components) from DMSO controls (arbitrary units); higher = stronger morphological change
[9] = tested on: E21; assay: as above
[10] = tested on: E28; assay: as above
[11] = tested on: E31; assay: as above
[12] = tested on: E34; assay: as above
[13] = tested on: E57; assay: as above
[14] = tested on: FT3469; assay: as above
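Throughout, for phenotypic distance (Euclidean, principal components) from DMSO controls: cell Painting imaging in 384-well plates, CellProfiler features reduced to at least 20 principal components, Euclidean distance versus same-plate DMSO vehicle wells (0.1% v/v), median over six images per well.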
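Throughout, for surviving fraction (nuclei count normalised to DMSO): nuclei counted by high-content imaging of Hoechst-stained cells in laminin-coated 384-well plates, relative to 0.1% DMSO vehicle wells, with staurosporine as cell-death control.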

CC(C)C[C@H](NC(=O)CNC(=O)c1cc(Cl)ccc1Cl)B(O)O [Ixazomib]
surviving fraction ([1]; 4.1 nM): 0.298
surviving fraction ([1]; 12.3 nM): 0.0451
surviving fraction ([1]; 37 nM): 0.0121
surviving fraction ([1]; 111.1 nM): 0.013
surviving fraction ([1]; 333.3 nM): 0.0174
surviving fraction ([1]; 1000 nM): 0.0252
surviving fraction ([1]; 3000 nM): 0.00174
surviving fraction ([2]; 4.1 nM): 0.275
surviving fraction ([2]; 12.3 nM): 0.0747
surviving fraction ([2]; 37 nM): 0.0159
surviving fraction ([2]; 111.1 nM): 0.0149
surviving fraction ([2]; 333.3 nM): 0.0187
surviving fraction ([2]; 1000 nM): 0.0308
surviving fraction ([2]; 3000 nM): 0.00187
surviving fraction ([3]; 4.1 nM): 0.582
surviving fraction ([3]; 12.3 nM): 0.296
surviving fraction ([3]; 37 nM): 0.14
surviving fraction ([3]; 111.1 nM): 0.149
surviving fraction ([3]; 333.3 nM): 0.0863
surviving fraction ([3]; 1000 nM): 0.102
surviving fraction ([3]; 3000 nM): 0.0701
surviving fraction ([4]; 4.1 nM): 0.365
surviving fraction ([4]; 12.3 nM): 0.223
surviving fraction ([4]; 37 nM): 0.0335
surviving fraction ([4]; 111.1 nM): 0.0134
surviving fraction ([4]; 333.3 nM): 0.0218
surviving fraction ([4]; 1000 nM): 0.0402
surviving fraction ([4]; 3000 nM): 0.00669
surviving fraction ([5]; 4.1 nM): 0.609
surviving fraction ([5]; 12.3 nM): 0.423
surviving fraction ([5]; 37 nM): 0.163
surviving fraction ([5]; 111.1 nM): 0.126
surviving fraction ([5]; 333.3 nM): 0.0695
surviving fraction ([5]; 1000 nM): 0.0659
surviving fraction ([5]; 3000 nM): 0.0494
surviving fraction ([6]; 4.1 nM): 0.118
surviving fraction ([6]; 12.3 nM): 0.0366
surviving fraction ([6]; 37 nM): 0.00889
surviving fraction ([6]; 111.1 nM): 0.00993
surviving fraction ([6]; 333.3 nM): 0.00889
surviving fraction ([6]; 1000 nM): 0.0105
surviving fraction ([6]; 3000 nM): 0.00366
surviving fraction ([7]; 4.1 nM): 0.583
surviving fraction ([7]; 12.3 nM): 0.704
surviving fraction ([7]; 37 nM): 0.371
surviving fraction ([7]; 111.1 nM): 0.386
surviving fraction ([7]; 333.3 nM): 0.297
surviving fraction ([7]; 1000 nM): 0.239
surviving fraction ([7]; 3000 nM): 0.103
phenotypic distance ([8]; 4.1 nM): 4.64
phenotypic distance ([8]; 12.3 nM): 9.62
phenotypic distance ([8]; 37 nM): 17.4
phenotypic distance ([8]; 111.1 nM): 10.6
phenotypic distance ([8]; 333.3 nM): 11.8
phenotypic distance ([8]; 1000 nM): 8.11
phenotypic distance ([8]; 3000 nM): 11.2
phenotypic distance ([9]; 4.1 nM): 6.82
phenotypic distance ([9]; 12.3 nM): 7.74
phenotypic distance ([9]; 37 nM): 11.3
phenotypic distance ([9]; 111.1 nM): 9.17
phenotypic distance ([9]; 333.3 nM): 11.6
phenotypic distance ([9]; 1000 nM): 10.7
phenotypic distance ([9]; 3000 nM): 14.7
phenotypic distance ([10]; 4.1 nM): 2.24
phenotypic distance ([10]; 12.3 nM): 3.91
phenotypic distance ([10]; 37 nM): 4.89
phenotypic distance ([10]; 111.1 nM): 4.69
phenotypic distance ([10]; 333.3 nM): 6.98
phenotypic distance ([10]; 1000 nM): 6.52
phenotypic distance ([10]; 3000 nM): 5.85
phenotypic distance ([11]; 4.1 nM): 3.6
phenotypic distance ([11]; 12.3 nM): 5.68
phenotypic distance ([11]; 37 nM): 7.85
phenotypic distance ([11]; 111.1 nM): 7.57
phenotypic distance ([11]; 333.3 nM): 8.35
phenotypic distance ([11]; 1000 nM): 9.03
phenotypic distance ([11]; 3000 nM): 17.2
phenotypic distance ([12]; 4.1 nM): 2.17
phenotypic distance ([12]; 12.3 nM): 4.29
phenotypic distance ([12]; 37 nM): 6.54
phenotypic distance ([12]; 111.1 nM): 7.64
phenotypic distance ([12]; 333.3 nM): 9.65
phenotypic distance ([12]; 1000 nM): 10.2
phenotypic distance ([12]; 3000 nM): 10.4
phenotypic distance ([13]; 4.1 nM): 8.41
phenotypic distance ([13]; 12.3 nM): 11.9
phenotypic distance ([13]; 37 nM): 11
phenotypic distance ([13]; 111.1 nM): 10.2
phenotypic distance ([13]; 333.3 nM): 10.1
phenotypic distance ([13]; 1000 nM): 9.67
phenotypic distance ([13]; 3000 nM): 7.76
phenotypic distance ([14]; 4.1 nM): 2.53
phenotypic distance ([14]; 12.3 nM): 2.8
phenotypic distance ([14]; 37 nM): 4.87
phenotypic distance ([14]; 111.1 nM): 6.47
phenotypic distance ([14]; 333.3 nM): 6.55
phenotypic distance ([14]; 1000 nM): 7.04
phenotypic distance ([14]; 3000 nM): 7.74
